We go through 26 compounds from US10329289B2, “6,7-dihydro-5H-pyrrolo[3,4-B]pyridin-5-one allosteric modulators of the M4 muscarinic acetylcholine receptor” (Merck Sharp & Dohme Corp., priority 2015, dated 2019).

The structures appear in SMILES notation.

In this assay the target is T1, human M4 muscarinic acetylcholine receptor (Homo sapiens, UniProt P08173).
T1 construct: expressed in transfected cells; host or cells: CHO-K1
T1 sequence (P08173 1-479): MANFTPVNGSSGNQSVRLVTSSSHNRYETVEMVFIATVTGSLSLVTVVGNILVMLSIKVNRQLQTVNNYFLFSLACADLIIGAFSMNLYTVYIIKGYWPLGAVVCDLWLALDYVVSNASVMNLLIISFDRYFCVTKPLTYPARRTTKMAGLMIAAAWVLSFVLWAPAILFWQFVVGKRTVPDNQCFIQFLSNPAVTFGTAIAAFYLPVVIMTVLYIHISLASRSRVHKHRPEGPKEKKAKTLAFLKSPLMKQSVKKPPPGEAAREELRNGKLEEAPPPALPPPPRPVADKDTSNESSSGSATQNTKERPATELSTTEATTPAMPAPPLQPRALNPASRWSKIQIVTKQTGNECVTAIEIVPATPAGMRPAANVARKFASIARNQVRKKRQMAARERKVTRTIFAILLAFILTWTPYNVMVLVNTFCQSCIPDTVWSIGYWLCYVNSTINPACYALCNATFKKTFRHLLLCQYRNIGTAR
In words: human FLIPR-based M4 PAM assay (Ca2+ mobilization, CHO-K1 cells with human M4 receptor and Gαqi5). In kind it is cell-based. The following applies: acetylcholine at 20% of maximum response, read-out: M4 PAM IP. A digest of the protocol: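 Calcium-mobilization (FLIPR) readout in dye-loaded CHO-K1 cells co-expressing human M4 receptor and Gαqi5. Potentiation measured against acetylcholine at a concentration giving 20% of maximal response, with an optional 70% addition; the reported value is the curve inflection point from a 4-parameter logistic fit.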
Take `COCCN1Cc2nc(N3CCC(Oc4ccc(OC)nc4)CC3)c(C)cc2C1=O` [Example 252, 6-(2-methoxyethyl)-2-(4-((6-methoxypyridin-3-yl)oxy)piperidin-1-yl)-3-methyl-6,7-dihydro-5H-pyrrolo[3,4-b]pyridin-5-one]: the EC50 was 94 nM.
`Cc1cc2c(nc1N1CCC(Oc3ccc4c(c3)C[C@H](O)C4)CC1)CNC2=O` (single isomer, unassigned) [Example 324B]: the EC50 stood at 28 nM.
With `Cc1c(N2CC[C@@H](OCC3(C)CC3)[C@@H](F)C2)nc2c(c1C)C(=O)NC2` [Example 161A, 2-((3S,4R)-3-Fluoro-4-((1-methylcyclopropyl)methoxy)piperidin-1-yl)-3,4-dimethyl-6,7-dihydro-5H-pyrrolo[3,4-b]pyridin-5-one], the EC50 is 21 nM.
Turning to `Cc1cccc(OC2CCN(c3nc4c(cc3C)C(=O)NC4)CC2)c1` [Example 78, 3-methyl-2-(4-(m-tolyloxy)piperidin-1-yl)-6,7-dihydro-5H-pyrrolo[3,4-b]pyridin-5-one], the EC50 worked out at 33 nM.
As for `Cc1cc2c(nc1N1CCC(OCc3ccccn3)CC1)CNC2=O` [Example 205A, 3-methyl-2-(4-(pyridin-2-ylmethoxy)piperidin-1-yl)-6,7-dihydro-5H-pyrrolo[3,4-b]pyridin-5-one], the figure is 5630 nM; as for `CCc1cc2c(nc1N1CCC(Oc3ccc4c(c3)OCC4)CC1)CNC2=O` [Example 198A, 2-(4-((2,3-dihydrobenzofuran-6-yl)oxy)piperidin-1-yl)-3-ethyl-6,7-dihydro-5H-pyrrolo[3,4-b]pyridin-5-one], 110 nM; as for `Cc1cc2c(nc1N1CCC(OCC(C)(C)C)CC1)CNC2=O` [Example 182, 3-methyl-2-(4-(neopentyloxy)piperidin-1-yl)-6,7-dihydro-5H-pyrrolo[3,4-b]pyridin-5-one], 3790 nM.
In the case of `COc1ccc(OC2CCN(c3nc4c(cc3C)C(=O)N([C@@H](C)CO)C4)CC2)cn1` (single isomer, unassigned) [Example 264C], the EC50 turned out to be 40 nM.
As for `Cc1cc2c(nc1N1CCC(Oc3ccc4c(c3)C(=O)N(C)CC4)CC1)CNC2=O` [Example 138, 2-methyl-7-((1-(3-methyl-5-oxo-6,7-dihydro-5H-pyrrolo[3,4-b]pyridin-2-yl)piperidin-4-yl)oxy)-3,4-dihydroisoquinolin-1(2H)-one], the figure is 390 nM; as for `CNc1ccc(OC2CCN(c3nc4c(cc3C)C(=O)NC4)CC2)cn1` [Example 320, 3-Methyl-2-(4-((6-(methylamino)pyridin-3-yl)oxy)piperidin-1-yl)-6,7-dihydro-5H-pyrrolo[3,4-b]pyridin-5-one], 150 nM.
In the case of `CCc1cc2c(nc1N1CCC(Oc3ccccc3)CC1)CNC2=O` [Example 202, 3-ethyl-2-(4-phenoxypiperidin-1-yl)-6,7-dihydro-5H-pyrrolo[3,4-b]pyridin-5-one], the EC50 was determined as 148 nM.
As to `Cc1cc2c(nc1N1CCC(Oc3ccc4nccn4c3)CC1)CNC2=O` [Example 182A, 2-(4-(imidazo[1,2-a]pyridin-6-yloxy)piperidin-1-yl)-3-methyl-6,7-dihydro-5H-pyrrolo[3,4-b]pyridin-5-one], the EC50 is 473 nM.
As for `Cc1cncc(OC2CCN(c3nc4c(cc3C)C(=O)NC4)CC2)c1` [Example 66, 3-Methyl-2-(4-((5-methylpyridin-3-yl)oxy)piperidin-1-yl)-6,7-dihydro-5H-pyrrolo[3,4-b]pyridin-5-one], the figure is 84 nM.
In the case of `Cc1cc2c(nc1N1CC[C@@H](Oc3ccccc3)[C@@H](F)C1)CNC2=O` [Example 35, 2-((3S,4R)-3-fluoro-4-phenoxypiperidin-1-yl)-3-methyl-6,7-dihydro-5H-pyrrolo[3,4-b]pyridin-5-one] it was 24 nM; in that of `Cc1c(N2CCC(OC[C@]3(C)CC3(F)F)CC2)nc2c(c1C)C(=O)N(CCO)C2` [Example 265C, (S)-2-(4-((2,2-difluoro-1-methylcyclopropyl)methoxy)piperidin-1-yl)-6-(2-hydroxyethyl)-3,4-dimethyl-6,7-dihydro-5H-pyrrolo[3,4-b]pyridin-5-one], 41 nM; in that of `Cc1ccccc1OC1CCN(c2nc3c(cc2C)C(=O)NC3)CC1` [Example 79, 3-methyl-2-(4-(o-tolyloxy)piperidin-1-yl)-6,7-dihydro-5H-pyrrolo[3,4-b]pyridin-5-one], 2280 nM.
In the case of `Cc1cc2c(nc1N1CCC(Oc3ccc4c(c3)COCC4)CC1)[C@H](CO)N(C)C2=O` [Example 350, (R)-7-(hydroxymethyl)-2-(4-(isochroman-7-yloxy)piperidin-1-yl)-3,6-dimethyl-6,7-dihydro-5H-pyrrolo[3,4-b]pyridin-5-one] it was 980 nM; in that of `COCCOC1CCN(c2nc3c(cc2C)C(=O)NC3)CC1` [Example 56, 2-(4-(2-methoxyethoxy)piperidin-1-yl)-3-methyl-6,7-dihydro-5H-pyrrolo[3,4-b]pyridin-5-one], 11200 nM; in that of `CCc1cc2c(nc1N1CC[C@@H](Oc3ccc4c(cnn4C)c3)[C@@H](F)C1)CN(CCO)C2=O` [Example 240A, 3-ethyl-2-((3S,4R)-3-fluoro-4-((1-methyl-1H-indazol-5-yl)oxy)piperidin-1-yl)-6-(2-hydroxyethyl)-6,7-dihydro-5H-pyrrolo[3,4-b]pyridin-5-one], 127 nM.
As to `COC(=O)CN1Cc2nc(N3CCC(OCC4(C)CC4)CC3)c(C)c(C)c2C1=O` [Example 256, methyl 2-(3,4-dimethyl-2-(4-((1-methylcyclopropyl)methoxy)piperidin-1-yl)-5-oxo-5,7-dihydro-6H-pyrrolo[3,4-b]pyridin-6-yl)acetate], the EC50 was 85 nM.
As for `Cc1cc2c(nc1N1CCC(OCC3(F)CCCC3)CC1)CNC2=O` [Example 180, 2-(4-((1-fluorocyclopentyl)meth-oxy)piperidin-1-yl)-3-methyl-6,7-dihydro-5H-pyrrolo[3,4-b]pyridin-5-one], the EC50 came to 1650 nM.
As for `Cc1cc2c(nc1N1CC[C@H](Oc3ccc4c(cnn4C)c3)[C@@H](F)C1)CNC2=O` [Example 24, 2-((3S,4S)-3-fluoro-4-((1-methyl-1H-indazol-5-yl)oxy)piperidin-1-yl)-3-methyl-6,7-dihydro-5H-pyrrolo[3,4-b]pyridin-5-one], the figure is 167 nM; as for `CCc1cc2c(nc1N1CCC(Oc3ccc4c(c3)OCC4)CC1)CN(CCO)C2=O` [Example 265A, 2-(4-((2,3-dihydrobenzofuran-6-yl)oxy)piperidin-1-yl)-3-ethyl-6-(2-hydroxyethyl)-6,7-dihydro-5H-pyrrolo[3,4-b]pyridin-5-one], 100 nM.
For the compound `CCN1Cc2nc(N3CCC(Oc4ccccc4)CC3)c(C)cc2C1=O` [Example 243, 6-ethyl-3-methyl-2-(4-phenoxypiperidin-1-yl)-6,7-dihydro-5H-pyrrolo[3,4-b]pyridin-5-one], the EC50 was 73 nM.
On to `Cc1cc2c(nc1N1CCC(Oc3ccc4[nH]nc(Cl)c4c3)CC1)CNC2=O` [Example 313, 2-(4-((3-Chloro-1H-indazol-5-yl)ox)piperidin-1-yl)-3-methyl-6,7-dihydro-5H-pyrrolo[3,4-b]pyridin-5-one], for which the EC50 turned out to be 30 nM.
For `Cc1cc2c(nc1N1CCC(Oc3ccc4c(c3)OCCN4C)CC1)CNC2=O` [Example 293, 3-methyl-2-(4-((4-methyl-3,4-dihydro-2H-benzo[b][1,4]oxazin-7-yl)oxy)piperidin-1-yl)-6,7-dihydro-5H-pyrrolo[3,4-b]pyridin-5-one], the EC50 turned out to be 104 nM.
